Data from publication PMC12202533, “Mechanistic Insights and Anti-cancer Activity of 2H-benzo[b][1,4]oxazin-3(4H)-one Linked 1,2,3-Triazoles in Human Cancer Cells” (Frontiers in Pharmacology, 2025).

Legend:
A549 cells [1] = experiment: RT-PCR gene expression; format: cell-based, human; conditions: A549, 10 μM, 48 h
Description: To investigate the molecular mechanisms underlying the anti-tumor activity of 2H-1,4-benzoxazin-3(4H)-one-linked 1,2,3-triazole derivatives, we examined the expression of key genes involved in cell growth and death, including those related to DNA damage, oxidative stress, apoptosis, and autophagy (Figure 5). Gene expression was assessed in A549 cells treated with 14b or 14c (10 μM) for 48 h. […] The regulation of gene expression is a complex process regulated by many signaling pathways, and these signaling pathways interact with each other, all of which lead to a change in gene expression, not all in the same direction. Although the DNA damage gene p21 was decreased, another key gene, H2AX, was increased, which may stimulate DNA damage. These findings in A549 cells align with the results observed following 14b and 14c treatments.
FIGURE 5 Compounds 14b and 14c increased the gene expression. A549 cells were treated with 14b (A) and 14c (B) (10 μM) for 48 h. Gene expressions were detected by RT-PCR. Data are presented as mean ± SEM, *P < 0.05.
A549 cells were seeded in 12-well plates and treated with compounds for 48 h. Total RNA was extracted using TRIzol reagent, and RT-PCR was performed using PowerUp™ SYBR™ Green Master Mix. Gene expression was normalized to GAPDH. The results are expressed as mean ± SEM, and statistical significance was assessed using a two-tailed Student’s t-test (P < 0.05).

A549 cells [2] = experiment: Annexin V-FITC/PI apoptosis quantification by flow cytometry; format: cell-based, human; conditions: 48 h
Description: We used these two compounds to clarify this function and explore the underlying mechanism. To investigate whether the new compound could induce cell apoptosis, A549 cells were exposed to different concentrations of 14b and 14c for 48 h. The cells were then stained with Annexin V-FITC and propidium iodide (PI). The Annexin V-FITC/PI staining was performed to quantify the percentage of apoptotic cells by flow cytometry.
A549 cells were exposed to different concentrations of 14b and 14c (5 μM, 10 μM, and 20 μM) for 48 h. Cells were collected and stained with Annexin V-FITC and PI, and apoptotic cells were measured by flow cytometry. Data are presented as mean ± SEM, *P < 0.05.
A549 cells were plated at a density of 3 × 10^5 cells per well in a six-well plate. Compounds at concentrations of 0, 5, 10, or 20 μM were added to the cells for 48 h. Cells were then collected, washed with PBS, and stained with Annexin V-FITC and propidium iodide for 20 min. Apoptotic cells were quantified using a flow cytometer, and the data were further analyzed using FlowJo software.

A549 cells [3] = experiment: Cellular ROS level measurement (DCFH-DA); format: cell-based, human; conditions: A549, 5, 10 or 20 μM, 24 h
From the text: Intracellular reactive oxygen species (ROS) generation will result in mitochondrial membrane damage and further induce cell apoptosis and cell death. To determine whether compounds 14b and 14c could induce ROS generation, we treated A549 cells with different doses of these two compounds and measured the intracellular ROS levels using the DCFH-DA peroxide-sensitive fluorescent dye. When DCFH-DA entered the cells, it would hydrolyze into DCFH by esterase and then convert to non-diffusible green fluorescent DCF by oxidation.
FIGURE 6 Compounds 14b and 14c increased ROS levels. A549 cells were treated with different concentrations of 14b (A) and 14c (B) (5 μM, 10 μM, or 20 μM) for 24 h. ROS levels were stained using DCFH-DA, observed by confocal microscopy, and analyzed by ImageJ. Data are presented as mean ± SEM, *P < 0.05.
A549 cells were seeded at a density of 5 × 10^3 cells per well in a 96-well plate and allowed to adhere overnight. Compounds were then added at concentrations of 0, 5, 10, and 20 μM for 24 h. After treatment, the medium was removed, and fresh medium without FBS but containing 10 μM DCFH-DA was added and incubated in the dark for 30 min. The cells were washed three times with FBS-free medium to remove excess probe. ROS levels were then measured and imaged using confocal microscopy.

BEAS-2B cells = experiment: Calcein AM/PI live/dead viability assay, normal lung cells; format: cell-based; conditions: BEAS-2B, 5, 10, 20 μM, 24 h
Description: To investigate the role of 14b and 14c in regulating cell proliferation and death, A549 cells were treated with different concentrations of compounds for 24 h, and the live/dead cell numbers were then observed by staining with calcein AM and propidium iodide.
FIGURE 4 Compound 14b and 14c increased dead cells and decreased live cells. (A–B) A549 cells were treated with different concentrations of 14b and 14c (5 μM, 10 μM, and 20 μM) for 24 h (C–D) BEAS-2B cells were treated with different concentrations of 14b and 14c (5 μM, 10 μM, and 20 μM) for 24 h. Live and dead cell numbers were stained with calcein in AM and PI, respectively, and cells were observed by confocal microscopy. Data are presented as mean ± SEM, *P < 0.05.
The live/dead viability assay was performed using the Calcein/PI Live/Dead Viability Assay Kit. A549 cells were plated at a density of 5 × 10^3 cells per well in a 96-well plate and allowed to adhere overnight. Compounds were then added at concentrations of 0, 5, 10, or 20 μM for 24 h. After replacing the medium with fresh culture medium containing Calcein AM and propidium iodide, the cells were incubated for 30 min at 37°C in the dark. Live and dead cells were observed and photographed using a confocal microscope.

KM mice = experiment: Acute toxicity test in mice; format: in vivo; conditions: 800 mg/kg oral gavage; for safety / toxicity in mice: 800 mg/kg
Description: We further evaluated the safety of compound 14b through an acute toxicity study in KM mice. Male and female mice were divided into two groups: a control group and a 14 b-treated group. The treated group received 800 mg/kg of compound 14b via oral gavage, while the control group was given an equivalent volume of solvent. Body weight was monitored over a 15-day period. At the end of the study, blood samples were collected from the retro-orbital sinus to assess the biochemical markers GPT and GOT, and the major organs—heart, liver, spleen, lungs, and kidneys—were weighed and subjected to HE staining.

A549 cells [4] = experiment: DNA damage staining (γ-H2AX antibody and DAPI); format: cell-based, human; conditions: A549, 5, 10, and 20 μM, 24 h
Description: In order to further verify the effects of 2H-1,4-benzoxazin-3(4H)-one linked 1,2,3-triazole derivatives on DNA damage, A549 cells were treated with different doses (5, 10, and 20 μM) of compounds 14b and 14c. After 24-h treatment, cells were stained with γ-H2AX antibody and DAPI, cell nuclei were stained blue, and DNA-damaged cells were stained green. Using confocal microscopy, cells were observed and photographed.
A549 cells were seeded at a density of 2 × 10^3 cells per well in 96-well plates. Cells were treated with different concentrations (0, 5, 10, 20, and 30 μM) of the compounds for 24 h. DNA damage was assessed using a DNA damage detection kit. The cell nuclei were stained blue, while DNA-damaged cells were stained green. Cells were then observed and photographed using a fluorescence microscope.

SMILES | ATG7 gene expression (A549 cells [1]) | Nrf2 gene expression (A549 cells [1]) | p53 gene expression (A549 cells [1]) | percentage of early and late apoptotic cells (A549 cells [2]; A549, 5 μM) | percentage of early and late apoptotic cells (A549 cells [2]; A549, 10 μM) | percentage of early and late apoptotic cells (A549 cells [2]; A549, 20 μM) | ROS generation (A549 cells [3]) | cytotoxicity in normal lung cells (BEAS-2B cells) | HE staining of the major organs (heart, liver, spleen, lungs, and kidneys) (KM mice) | organ indices of the major organs versus control group (KM mice) | safety / toxicity in mice (KM mice) | body weight versus control group (KM mice; 15-day period) | GPT levels (KM mice; blood) | safety / toxicity in mice (KM mice; listed as 14 b) | DNA damage (γ-H2AX staining) (A549 cells [4]) | Gpx4 gene expression (A549 cells [1]) | H2AX gene expression (A549 cells [1]) | apoptosis-related genes expression (A549 cells [1])
O=C1COc2ccc(NC(=O)c3cccc(-c4cn(-c5cccc(Br)c5)nn4)c3)cc2N1 [Compound 14b] | increased expression | increased expression | increased expression | 13.92% | 25.85% | 49.04% | increased ROS generation | minimal cytotoxicity | no significant histopathological differences | no significant changes | low toxicity | no significant differences | slight but not statistically significant increase | favorable safety profile | significantly led to DNA damage in a concentration-dependent manner |  |  | 
O=C1COc2ccc(NC(=O)c3cccc(-c4cn(-c5ccccc5F)nn4)c3)cc2N1 [Compound 14c] | upregulated |  |  | 12.57% | 27.21% | 72.02% | increased ROS generation | minimal cytotoxicity |  |  |  |  |  |  | significantly led to DNA damage in a concentration-dependent manner | upregulated | upregulated | either downregulated or unchanged
